In patent US20090203708A1, “NOVEL SUBSTITUTED-1-H-QUINAZOLINE-2,4-DIONE DERIVATIVES, PREPARATION METHOD THEREOF AND PHARMACEUTICAL COMPOSITION CONTAINING THE SAME” (Korea Research Institute of Chemical Technology, priority 2006, published 2009):

Assays:
[1] = molecular target: T1, D4 (hD4.2 receptor) (Homo sapiens, UniProt P21917, DEL265-296); experiment: Radioligand binding assay, dopamine D4; settings: [3H] YM-09151-2 0.06 nM; read-out: Binding affinity IC50 D4
T1 construct: purchased BioSignal Packard Inc., Montreal, Canada
T1 sequence (P21917 with tags, fused parts or gaps DEL265-296): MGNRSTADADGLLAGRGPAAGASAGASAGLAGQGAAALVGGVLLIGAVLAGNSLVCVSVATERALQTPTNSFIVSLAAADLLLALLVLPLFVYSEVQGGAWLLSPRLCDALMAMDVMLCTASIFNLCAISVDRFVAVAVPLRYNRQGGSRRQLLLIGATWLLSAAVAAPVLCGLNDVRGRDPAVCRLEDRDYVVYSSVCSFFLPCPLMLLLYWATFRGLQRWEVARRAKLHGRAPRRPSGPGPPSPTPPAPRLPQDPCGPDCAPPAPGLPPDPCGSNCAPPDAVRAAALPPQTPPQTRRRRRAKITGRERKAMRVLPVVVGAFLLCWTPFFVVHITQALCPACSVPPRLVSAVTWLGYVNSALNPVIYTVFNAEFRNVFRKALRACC
Procedure: (§1) Radioligand binding assays for dopamine receptor family (D1, D2 and D3) were performed according to the protocols provided by the manufacturer of receptor membranes (BioSignal Packard Inc., Montreal, Canada). The radioligands used were [^3H] spiperone (for hD2L and hD3 receptors, 1 nM) and [^3H] YM-09151-2 (hD4.2 receptor, 0.06 nM). Briefly, the buffer used in the D1, D2 and D3 receptor binding assay was 50 mM Tris-HCl (pH 7.4), containing 10 mM MgCl2 and 1 mM EDTA, or 50 mM Tris-HCl (pH 7.4), containing 5 mM MgCl2, 5 mM EDTA, 5 mM KCl, 1.5 mM CaCl2 and 120 mM NaCl. For [^3H] YM-09151-2 receptor binding assays, 50 mM Tris-HCl (pH 7.4) containing 5 mM MgCl2, 5 mM EDTA, 5 mM KCl and 1.5 mM CaCl2, was used as a buffer. Nonspecific binding was determined with haloperidol (10 μM) for D2 and D3 and clozapine (10 μM) for D4 receptors.
(§2) Competition binding studies were carried out with 7-8 concentrations of the test compound run in duplicate tubes, and isotherms from three assays were calculated by computerized nonlinear regression analysis (GraphPad Prism Program, San Diego, […]) to yield median inhibitory concentration (IC50) values.

[2] = molecular target: D3 (hD3 receptor) (Homo sapiens, UniProt P35462); experiment: Radioligand binding assay, dopamine D3
D3 (hD3 receptor), sequence (P35462 whole entry): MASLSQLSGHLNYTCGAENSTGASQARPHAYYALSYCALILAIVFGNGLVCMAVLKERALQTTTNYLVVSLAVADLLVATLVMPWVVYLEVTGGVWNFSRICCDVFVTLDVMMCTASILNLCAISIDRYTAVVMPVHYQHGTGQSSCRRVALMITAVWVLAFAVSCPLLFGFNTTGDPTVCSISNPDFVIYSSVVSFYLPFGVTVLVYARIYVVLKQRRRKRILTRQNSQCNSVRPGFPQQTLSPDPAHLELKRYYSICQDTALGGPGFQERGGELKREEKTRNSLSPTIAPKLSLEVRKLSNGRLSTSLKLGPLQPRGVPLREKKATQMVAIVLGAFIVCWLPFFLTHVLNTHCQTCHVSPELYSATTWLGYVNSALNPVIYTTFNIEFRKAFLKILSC

[3] = molecular target: T2, D2 (hD2L receptor) (Homo sapiens, UniProt P14416); experiment: Radioligand binding assay, dopamine D2; settings: [3H] spiperone 1 nM; read-out: Binding affinity IC50 D2
T2 construct: purchased BioSignal Packard Inc., Montreal, Canada
T2 sequence (P14416 whole entry): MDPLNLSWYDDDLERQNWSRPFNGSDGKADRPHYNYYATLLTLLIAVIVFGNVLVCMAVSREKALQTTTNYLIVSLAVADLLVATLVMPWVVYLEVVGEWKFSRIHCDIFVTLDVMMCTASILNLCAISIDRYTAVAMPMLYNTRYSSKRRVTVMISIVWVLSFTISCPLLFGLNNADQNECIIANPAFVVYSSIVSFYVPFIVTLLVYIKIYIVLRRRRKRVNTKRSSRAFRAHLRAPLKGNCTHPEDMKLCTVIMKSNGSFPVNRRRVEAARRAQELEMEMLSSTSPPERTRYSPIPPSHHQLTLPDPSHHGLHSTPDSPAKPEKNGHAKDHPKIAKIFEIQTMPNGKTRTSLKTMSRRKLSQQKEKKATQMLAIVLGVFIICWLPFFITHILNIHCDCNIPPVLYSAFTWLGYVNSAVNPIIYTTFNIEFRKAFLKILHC
Procedure: as §1, §2

[4] = molecular target: T3, 5-HT2c (human recombinant receptor, CHO-K1) (Homo sapiens, UniProt P28335); experiment: Radioligand binding assay, 5-HT2c
T3 sequence (P28335 33-458): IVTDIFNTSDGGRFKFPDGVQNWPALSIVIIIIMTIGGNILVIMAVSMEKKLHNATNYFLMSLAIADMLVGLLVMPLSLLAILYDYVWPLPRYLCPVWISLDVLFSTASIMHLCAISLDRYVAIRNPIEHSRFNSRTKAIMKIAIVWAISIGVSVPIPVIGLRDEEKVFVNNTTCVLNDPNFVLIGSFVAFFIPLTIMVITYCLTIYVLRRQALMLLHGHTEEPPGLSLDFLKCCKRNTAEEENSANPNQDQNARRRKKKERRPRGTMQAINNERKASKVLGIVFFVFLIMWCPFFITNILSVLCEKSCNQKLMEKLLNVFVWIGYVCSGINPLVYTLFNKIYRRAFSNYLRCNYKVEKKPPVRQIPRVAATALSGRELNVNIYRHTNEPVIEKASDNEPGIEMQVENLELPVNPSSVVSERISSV

[5] = molecular target: human serotonin 5-HT6 receptor (Homo sapiens, UniProt P50406); experiment: [3H]LSD binding assay for cloned 5-HT6 receptors
human serotonin 5-HT6 receptor, sequence (P50406 whole entry): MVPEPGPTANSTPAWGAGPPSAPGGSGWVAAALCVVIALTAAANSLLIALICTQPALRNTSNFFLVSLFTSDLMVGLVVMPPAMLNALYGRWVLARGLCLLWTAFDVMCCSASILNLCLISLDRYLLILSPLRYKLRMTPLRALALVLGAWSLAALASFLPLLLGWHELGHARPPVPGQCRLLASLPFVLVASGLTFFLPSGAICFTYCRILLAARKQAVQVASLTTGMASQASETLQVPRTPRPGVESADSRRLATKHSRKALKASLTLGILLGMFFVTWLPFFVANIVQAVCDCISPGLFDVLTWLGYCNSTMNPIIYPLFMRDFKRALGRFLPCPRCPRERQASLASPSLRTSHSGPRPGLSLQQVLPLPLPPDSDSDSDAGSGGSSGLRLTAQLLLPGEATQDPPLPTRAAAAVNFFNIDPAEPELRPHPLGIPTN

[6] = molecular target: 5-HT7 (human recombinant receptor, CHO-K1) (Homo sapiens, UniProt P34969); experiment: Radioligand binding assay, 5-HT7
5-HT7 (human recombinant receptor, CHO-K1), sequence (P34969 whole entry): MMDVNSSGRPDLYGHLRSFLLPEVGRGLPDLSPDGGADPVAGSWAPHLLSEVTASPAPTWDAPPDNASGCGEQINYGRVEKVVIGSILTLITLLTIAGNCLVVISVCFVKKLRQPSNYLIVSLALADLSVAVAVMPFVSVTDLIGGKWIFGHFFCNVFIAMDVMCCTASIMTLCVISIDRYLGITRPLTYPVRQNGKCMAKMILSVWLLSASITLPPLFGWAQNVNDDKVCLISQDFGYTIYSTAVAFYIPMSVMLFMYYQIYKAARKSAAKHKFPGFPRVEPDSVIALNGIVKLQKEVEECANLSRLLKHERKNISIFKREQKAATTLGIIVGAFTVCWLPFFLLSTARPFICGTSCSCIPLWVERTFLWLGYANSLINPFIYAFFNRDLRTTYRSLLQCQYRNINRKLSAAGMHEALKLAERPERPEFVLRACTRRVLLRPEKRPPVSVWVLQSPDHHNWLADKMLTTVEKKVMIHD

[7] = molecular target: 5-HT2a (human recombinant receptor, CHO-K1) (Homo sapiens, UniProt P28223); experiment: Radioligand binding assay, 5-HT2a
5-HT2a (human recombinant receptor, CHO-K1), sequence (P28223 whole entry): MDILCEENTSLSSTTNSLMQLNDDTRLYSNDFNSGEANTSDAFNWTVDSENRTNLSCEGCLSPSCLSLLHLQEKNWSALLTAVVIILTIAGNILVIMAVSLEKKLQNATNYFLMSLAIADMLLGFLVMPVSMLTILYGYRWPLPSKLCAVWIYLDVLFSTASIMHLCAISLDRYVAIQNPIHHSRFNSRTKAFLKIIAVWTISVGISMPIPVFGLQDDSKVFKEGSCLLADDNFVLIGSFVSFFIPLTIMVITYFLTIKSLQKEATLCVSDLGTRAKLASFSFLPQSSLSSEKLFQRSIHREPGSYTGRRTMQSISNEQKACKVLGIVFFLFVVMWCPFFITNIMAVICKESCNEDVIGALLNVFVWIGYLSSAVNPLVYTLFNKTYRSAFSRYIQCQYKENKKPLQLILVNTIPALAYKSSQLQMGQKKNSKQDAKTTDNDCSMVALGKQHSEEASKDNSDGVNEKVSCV

[8] = molecular target: T4, 5-HT1a (human recombinant receptor, CHO-K1) (Homo sapiens, UniProt P08908); experiment: Radioligand binding assay, 5-HT1a
T4 sequence (P08908 1-422): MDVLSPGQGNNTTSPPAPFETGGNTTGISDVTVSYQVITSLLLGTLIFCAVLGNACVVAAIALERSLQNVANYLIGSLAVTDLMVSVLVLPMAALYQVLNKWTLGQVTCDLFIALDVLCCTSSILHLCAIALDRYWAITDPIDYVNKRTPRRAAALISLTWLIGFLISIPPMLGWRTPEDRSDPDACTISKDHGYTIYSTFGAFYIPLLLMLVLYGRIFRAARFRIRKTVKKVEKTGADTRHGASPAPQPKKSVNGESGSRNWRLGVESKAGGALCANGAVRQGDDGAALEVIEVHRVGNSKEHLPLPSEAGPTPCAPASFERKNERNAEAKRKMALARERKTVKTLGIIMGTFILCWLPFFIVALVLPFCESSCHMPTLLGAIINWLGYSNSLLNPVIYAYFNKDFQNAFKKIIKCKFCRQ

SMILES | IC50 [1] [µM] | IC50 [2] [µM] | IC50 [3] [µM] | melting point [°C] | IC50 [4] [µM] | IC50 [5] [µM] | IC50 [6] [µM] | IC50 [7] [µM] | IC50 [8] [µM]
CN1CCN(c2cc(Cl)cc3c2c(=O)n(Cc2cccc(Cl)c2)c(=O)n3Cc2ccccc2)CC1 [Example 18, 1-benzyl-7-chloro-3-(3-chloro-benzyl)-5-(4-methyl-piperazin-1-yl)-1H-quinazoline-2,4-dione] | > 10 | 0.339 | 7.32 | 165 to 169 | 0.748 | 0.0021 | 1.88 | 1.38 | 1.78
CN1CCN(c2cc(Cl)cc3c2c(=O)n(Cc2ccccc2Cl)c(=O)n3Cc2ccccc2)CC1 [Example 17, 1-benzyl-7-chloro-3-(2-chloro-benzyl)-5-(4-methyl-piperazin-1-yl)-1H-quinazoline-2,4-dione] | > 10 | 0.138 | > 10 | 87 to 92 | 0.512 | 0.0005 | 2.18 | 0.169 | 3.28
CN1CCN(c2cc(Cl)cc3c2c(=O)n(Cc2cccc([N+](=O)[O-])c2)c(=O)n3Cc2ccccc2)CC1 [Example 32, 1-benzyl-7-chloro-5-(4-methyl-piperazin-1-yl)-3-(3-nitro-benzyl)-1H-quinazoline-2,4-dione] | > 10 | 0.276 | > 10 | 200 to 205 | 1.56 | 0.0006 | > 10 | 1.8 | 3.8
Cc1ccc(Cn2c(=O)c3c(N4CCN(C)CC4)cc(Cl)cc3n(Cc3ccccc3)c2=O)cc1 [Example 24, 1-benzyl-7-chloro-3-(4-methyl-benzyl)-5-(4-methyl-piperazin-1-yl)-1H-quinazoline-2,4-dione] | > 10 | 0.435 | > 10 | 92 to 97 | 0.599 | 0.002 | > 10 | 0.733 | 3.21
CN1CCN(c2cc(Br)cc3c2c(=O)n(Cc2ccccc2)c(=O)n3Cc2ccccc2)CC1 [Example 54, 1,3-dibenzyl-7-bromo-5-(4-methyl-piperazin-1-yl)-1H-quinazoline-2,4-dione] | > 10 | 0.554 | > 10 | 80 to 84 | 0.646 | 0.0023 | > 10 | 0.376 | 5.01
Cc1ccccc1Cn1c(=O)c2c(N3CCN(C)CC3)cc(Cl)cc2n(Cc2ccccc2)c1=O [Example 22, 1-benzyl-7-chloro-3-(2-methyl-benzyl)-5-(4-methyl-piperazin-1-yl)-1H-quinazoline-2,4-dione] | > 10 | 1.54 | > 10 | 92 to 95 | 0.216 | 0.0021 | 3.97 | 0.663 | 5.78
Cc1ccc(Cn2c(=O)c3c(N4CCN(C)CC4)cc(Cl)cc3n(Cc3ccccc3)c2=O)o1 [Example 47, 1-benzyl-7-chloro-3-(5-methyl-furan-2-ylmethyl)-5-(4-methyl-piperazin-1-yl)-1H-quinazoline-2,4-dione] | > 10 | 2.81 | > 10 | 132 to 136 | 0.465 | 0.0014 | 8.74 | 0.83 | 1.14
CN1CCN(c2cc(Cl)cc3c2c(=O)n(Cc2cccc(I)c2)c(=O)n3Cc2ccccc2)CC1 [Example 20, 1-benzyl-7-chloro-3-(3-iodo-benzyl)-5-(4-methyl-piperazin-1-yl)-1H-quinazoline-2,4-dione] | > 10 | 0.615 | > 10 | 182 to 184 | 1.05 | 0.0016 | 1.92 | 0.912 | 3.53
CN1CCN(c2cc(Br)cc3c2c(=O)n(Cc2ccccc2Cl)c(=O)n3Cc2ccccc2)CC1 [Example 55, 1-benzyl-7-bromo-3-(2-chloro-benzyl)-5-(4-methyl-piperazin-1-yl)-1H-quinazoline-2,4-dione] | > 10 | 1.44 | > 10 | 104 to 108 | 0.252 | 0.0015 | 5.14 | 0.13 | 2.72
O=c1c2c(N3CCNCC3)cc(Cl)cc2n(Cc2ccccc2)c(=O)n1Cc1ccccc1F [Example 58, 1-benzyl-7-chloro-3-(2-fluoro-benzyl)-5-piperazin-1-yl-quinazoline-2,4-dione] | > 10 | 3.13 | > 10 | 98 to 109 | 0.54 | 0.0006 | > 10 | 0.22 | 2.85
CN1CCN(c2cc(Cl)cc3c2c(=O)n(Cc2ccccc2F)c(=O)n3Cc2ccccc2)CC1 [Example 11, 1-benzyl-7-chloro-3-(2-fluoro-benzyl)-5-(4-methyl-piperazin-1-yl)-1H-quinazoline-2,4-dione] | > 10 | 2.66 | > 10 | 147 to 149 | 0.176 | 0.0012 | 4.84 | 0.463 | 1.51
Cc1cc(C)cc(CCCn2c(=O)c3c(N4CCN(C)CC4)cc(Cl)cc3n(Cc3ccccc3)c2=O)c1 [Example 44, 1-benzyl-7-chloro-3-[3-(3,5-dimethyl-phenyl)-propyl]-5-(4-methyl-piperazin-1-yl)-1H-quinazoline-2,4-dione] | > 10 | 0.073 | 0.987 | 67 to 73 | 2.65 | 0.002 | > 10 | 0.197 | 2.78
CN1CCN(c2cc(Cl)cc3c2c(=O)n(Cc2cccc(F)c2)c(=O)n3Cc2ccccc2)CC1 [Example 12, 1-benzyl-7-chloro-3-(3-fluoro-benzyl)-5-(4-methyl-piperazin-1-yl)-1H-quinazoline-2,4-dione] | > 10 | 0.49 | > 10 | 148 to 150 | 1.06 | 0.0019 | 1.67 | 0.622 | 0.718
